Reference: patent US20180071317A1, “USE OF AGENTS THAT ALTER THE PERITUMORAL ENVIRONMENT FOR THE TREATMENT OF CANCER” (SERVICIO ANDALUZ DE SALUD, priority 2011, published 2018)

How the values were obtained:
[1] = tested on: tumor cells from primary human tumors (PI3 Kinase pathway); experiment: Proliferation of primary human tumor cells (AKT modified or unchanged) alone or with macrophages; assay type: cell-based; settings: antagonist 1 μM
[2] = tested on: tumor cells from primary human tumors (MAP Kinase pathway); experiment: Proliferation of primary human tumor cells (ERK modified or unchanged) alone or with stromal fibroblasts; assay type: cell-based; settings: antagonist 1 μM
[3] = tested on: tumor cells from primary human tumors (PI3 Kinase pathway); experiment: Proliferation of primary human tumor cells (AKT modified or unchanged) alone or with stromal fibroblasts; assay type: cell-based; settings: antagonist 1 μM
[4] = tested on: human primary macrophages (PHM); experiment: IL-8 Western blotting in human primary macrophages; assay type: cell-based; settings: cultured in the presence of SP
Text: Further cells that make up the microenvironment are peritumoral macrophage lineage cells that are of great importance in the development of the microenvironment around the tumor, by interacting with tumor cells to stimulate their growth and spread by secretion into the medium of different markers that promote the expansion and growth of tumors. In this sense the next step was to analyze the effect exerted by the treatment with non-peptide NK1 antagonists in human primary macrophages (PHM) obtained and purified from pleural effusion samples obtained from men with chronic age range between 45 and 55 years. Briefly, the pleural fluid from chronic (rich in macrophages) was centrifuged. […]
Similar results were obtained in the case of TNF-α, respect to its expression to those obtained using the other markers analyzed: EGF, MMP-9 and VEGF, i.e., the treatment with the non-peptide receptor NK1 inhibited the TNF-α marker expression. Also the presence of IL-8 were determined by Western blotting, as explained in Example 1, using […] primary antibody (AB1427, Merck-Millipore).

[5] = tested on: cell line C-12210 (microvascular endothelial cells); experiment: Proliferation of C-12210 endothelial cell cultures (MTS); assay type: cell-based, human;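 also: MTS colorimetric read-out in culture wells, absorbance at 492 nm with 690 nm reference, MTS added 90 min before reading, blank without cells, compared with untreated control cells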

C[C@@H](O[C@H]1OCCN(Cc2n[nH]c(=O)[nH]2)[C@H]1c1ccc(F)cc1)c1cc(C(F)(F)F)cc(C(F)(F)F)c1 [Aprepitant]
growth of primary tumor cells cultured alone (in words) ([1]; AKT modified or unchanged): only inhibits the growth of cells in which said receptor acts through the PI3 Kinase pathway | proliferation of primary tumor cells co-cultured with macrophages (in words) ([1]; irrespective of PI3 Kinase pathway integrity): produces a proliferation of inhibition of tumor cells | growth of primary tumor cells cultured alone (in words) ([2]; ERK modified or unchanged): only inhibits the growth of cells in which the receptor acts NK1 through the MAP Kinases pathway | proliferation of primary tumor cells co-cultured with stromal fibroblasts (in words) ([2]; irrespective of MAP Kinases pathway integrity): produces a proliferation of inhibition of tumor cells | growth of primary tumor cells cultured alone (in words) ([3]; AKT modified or unchanged): only inhibits the growth of cells in which said receptor acts through the PI3 Kinase pathway | proliferation of primary tumor cells co-cultured with stromal fibroblasts (in words) ([3]; irrespective of PI3 kinases pathway integrity): produces a proliferation of inhibition of tumor cells

CSCC[C@H](NC(=O)[C@H](CC(C)C)NC(=O)CNC(=O)[C@H](Cc1ccccc1)NC(=O)[C@H](Cc1ccccc1)NC(=O)[C@H](CCC(N)=O)NC(=O)[C@H](CCC(N)=O)NC(=O)[C@@H]1CCCN1C(=O)[C@H](CCCCN)NC(=O)[C@@H]1CCCN1C(=O)[C@@H](N)CCCNC(=N)N)C(N)=O [SP]
IL-8 expression in macrophages, Western blotting (in words) [4]: showed expression of this marker | proliferation, percentage of control ± SD ([5]; SP 10 nM, exposure 0 h): 102.2 ± 1% | proliferation, percentage of control ± SD ([5]; SP 10 nM, exposure 24 h): 119.1 ± 1.8% | proliferation, percentage of control ± SD ([5]; SP 10 nM, exposure 48 h): 139.3 ± 3.1% | proliferation, percentage of control ± SD ([5]; SP 10 nM, exposure 72 h): 134.3 ± 2.8% | proliferation, percentage of control ± SD ([5]; SP 100 nM, exposure 0 h): 109.5 ± 2.9% | proliferation, percentage of control ± SD ([5]; SP 100 nM, exposure 24 h): 17 ± 2.7% | proliferation, percentage of control ± SD ([5]; SP 100 nM, exposure 48 h): 21 ± 2.6% | proliferation, percentage of control ± SD ([5]; SP 100 nM, exposure 72 h): 32.4 ± 3.3% | proliferation, percentage of control ± SD ([5]; SP 500 nM, exposure 0 h): 128.9 ± 2.7% | proliferation, percentage of control ± SD ([5]; SP 500 nM, exposure 24 h): 137 ± 3.8% | proliferation, percentage of control ± SD ([5]; SP 500 nM, exposure 48 h): 146 ± 4.7% | proliferation, percentage of control ± SD ([5]; SP 500 nM, exposure 72 h): 158.5 ± 4.6% | proliferation, percentage of control ± SD ([5]; SP 1 μM, exposure 0 h): 175.3 ± 5.2% | proliferation, percentage of control ± SD ([5]; SP 1 μM, exposure 24 h): 186 ± 6.3% | proliferation, percentage of control ± SD ([5]; SP 1 μM, exposure 48 h): 194.4 ± 6.5% | proliferation, percentage of control ± SD ([5]; SP 1 μM, exposure 72 h): 199 ± 5.5% | proliferation, percentage of control ± SD ([5]; SP 50 μM, exposure 0 h): 218 ± 3.5% | proliferation, percentage of control ± SD ([5]; SP 50 μM, exposure 24 h): 242 ± 6.7% | proliferation, percentage of control ± SD ([5]; SP 50 μM, exposure 48 h): 247 ± 6.5% | proliferation, percentage of control ± SD ([5]; SP 50 μM, exposure 72 h): 259.4 ± 4.1% | proliferation, percentage of control ± SD ([5]; SP 100 μM, exposure 0 h): 236.4 ± 5.6% | proliferation, percentage of control ± SD ([5]; SP 100 μM, exposure 24 h): 258 ± 4.5% | proliferation, percentage of control ± SD ([5]; SP 100 μM, exposure 48 h): 259.5 ± 4.6% | proliferation, percentage of control ± SD ([5]; SP 100 μM, exposure 72 h): 266.9 ± 6.8% | effect on growth/proliferation of C-12210 cells (in words) ([5]; increasing concentrations): stimulating effect on the growth of human endothelial cells
